Test results published in patent US8603493B2, “Carbosilane dendrimers, preparation method thereof and use of same” (Dendrico, S.L., priority 2005, dated 2013).

What was measured:
HIVNL4.3 = test: HIV inhibition test in PBMC; assay type: cell-based; conditions: NN 1, 3 and 5 μM before or after infection, 0.4 MOI, 24 h
Experimental: The HIVNL4.3 virus strain was then added at a concentration of 1 particle per cell (1 MOI). The MT-2 and the virus were cultured during at least 2 hours at 37° C., stirring the culture every 15-30 minutes. Finally, the cultures (cells-virus) were washed twice to remove the virus which had not integrated in the cell genome. The cells were transferred and cultured in 25 cm^2 bottles in the same culture medium. […] All of them were placed in octuplicate and were maintained at 37° C. in CO2 atmosphere during a week. After this time, the titering was read by display of the cytopathic effect and […] formation. The titering was calculated by applying Spearman-Karber's formula^[30], which serves to quantify the number of particles of virus per ml of medium in a culture in which serial dilutions of the concentrate of virus to titer have been seeded in octuplicate. The PBMC were stimulated during 48 hours with 2 μg/ml of PHA and 100 IU of IL-2, to provoke a polyclonal activation; after 24 hours the cells were washed with PBS. […] The cultures were incubated at 37° C. and they were maintained in a humidified atmosphere with 5% CO2. […] To eliminate the influence of the possible toxicity of the dendrimer on the number of cells and the quantity of viral copies, the number of virus copies was adjusted to the percentage of live cells to be able to make comparisons between different dendrimer concentrations. […]

[1] = Dendrimer-drug binding test (polyacrylamide gel delay), methotrexate; conditions: dendrimer 100 μM, charge ratios 1+/1− to 8+/1−, 37° C., 1 hour
Experimental: (§1) The drugs chosen to perform the tests, all with at least one negative charge at physiological pH, were: • Methotrexate (sodium salt): • 1 charge (−) • Supplying laboratory: Almirall • Presentation: 25 mg/ml solution • Excipients: NaCl, NaOH, HCl, double-distilled H2O • Heparin (sodium salt) • Several charges (−) • Supplying laboratory: Rovi • Presentation: 10 mg/ml solution (1000 U) • Excipients: methyl p-oxybenzoate, propyl p-oxybenzoate, NaCl, double-distilled H2O • Insulin (recombinant human insulin) • 4 charges (−) • Supplying laboratory: Novo Nordisk • Product trade name: Actrapid • Presentation: 3.5 mg/ml solution (100 U) • Excipients: ZnCl2, HCl, NaOH, double-distilled H2O
(§2) The determination of the bond and complex formation between the dendrimer and the drug was performed by evaluating the delay in the polyacrylamide gel of the dendrimer bound to drug with respect to the free dendrimer: • Complex formation: It is performed in a final volume of the mixture of 30 μl, which is the maximum volume to load in the gel. To do this, one starts from the necessary quantity of dendrimer that provides a perfectly identifiable band by staining with silver nitrate in the gel once the electrophoresis has been carried out: 20 μl of a 100 μM solution, which corresponds to […] molecules. The drug is added in the 10 μl at different concentrations to produce the chosen (+) and (−) charge ratios, also determining the quantity of drug molecules present in the mixture. An incubation of said mixture was performed at 37° C. during 1 hour to give time for a more thermodynamically stable complex to form, although more time may be needed for its formation. Each complex is performed in duplicate. • Electrophoresis and gel staining: The gels used were 7.5% polyacrylamide/bisacrylamide, prepared with 1.5M Tris pH 8.8. Each electrophoresis was carried out at 90 volts during 4 hours, after which the gel was stained with silver nitrate and photographed. […]

[2] = Dendrimer-drug binding test (polyacrylamide gel delay), heparin; conditions: dendrimer 100 μM, heparin 10, 1, 0.5, 0.1 U, 37° C., 1 hour
Experimental: as §1, §2

[3] = molecular target: T1, Insulin (recombinant human insulin) (Homo sapiens, UniProt P01308); test: Dendrimer-drug binding test (polyacrylamide gel delay), insulin; conditions: dendrimer 100 μM, insulin 1, 0.5, 0.1, 0.05 U, 37° C., 1 hour
T1 construct: Despite having its molecular weight (5825 g/mol) and establishing an average of 4 (−) charges; purchased Novo Nordisk Actrapid (trade name; no catalogue number given)
T1 sequence (P01308 25-54 limits assumed): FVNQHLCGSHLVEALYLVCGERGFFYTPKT
T1 sequence (P01308 90-110 limits assumed): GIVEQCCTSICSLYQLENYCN
Experimental: as §1, §2

U87-MG cells [4] = test: Toxicity in U-87-MG cells: LDH in the supernatant
Excerpt: The concentrations and volumes of each one of these compounds were the same used in the test performed with MTT. The commercial kit Cytotoxicity Detection KitPLUS (LDH), from Roche Applied Science was used to determine lactate dehydrogenase, following the manufacturer's instructions.

U87-MG cells [5] = test: Transfection of U87-MG cells mediated by dendrimers (flow cytometry); assay type: cell-based; conditions: dendriplex with anti-rev oligonucleotide 250 nM, − charge/+ charge ratio 1:8, 24 hours
Experimental: 100000 cells/well were plated of the corresponding cell line in a 24-well plate with 500 μl of medium.
Dendriplexes were formed with dendrimers NN and NN16 and the fluorescent anti-rev antisense oligonucleotide in a total volume of 75 μl of medium without serum, wherein the anti-rev oligonucleotide was mixed at a concentration 250 nM and the corresponding dendrimer in different proportions, so that different − charge/+ charge ratios were obtained: 1:1, 1:2, 1:4 and 1:8. The mixture was incubated during half an hour at ambient temperature and then it was added to the corresponding well to incubate the cells with dendriplexes.
After 24 hours of incubation, the cells were removed from the well, they were washed twice with PBS, they were incubated for 1 minute with acid glycine to remove the possible moieties of dendriplexes which may have remained adhered on the cell membrane, and a final wash was performed with PBS. Finally, the cells were resuspended in 500 μl of PBS and the quantity of fluorescent oligonucleotide inside the cell was quantified by flow cytometry.

SMILES | infection of PBMC by HIV (HIV DNA copies/10^6 cells adjusted to % live cells) (HIVNL4.3) | dendrimer-methotrexate complex formation (delay in gel) [1] | dendrimer-heparin complex formation (delay in gel) [2] | dendrimer-insulin complex formation (delay in gel) [3] | cytotoxicity (LDH), comparison (U87-MG cells [4]) | percentage of cells transfected (U87-MG cells [5]) [%]
CN(CCO[Si](C)(C)CCC[Si](C)(CCC[Si](CCC[Si](C)(CCC[Si](C)(C)OCCN(C)CC[N+](C)(C)C)CCC[Si](C)(C)OCCN(C)CC[N+](C)(C)C)(CCC[Si](C)(CCC[Si](C)(C)OCCN(C)CC[N+](C)(C)C)CCC[Si](C)(C)OCCN(C)CC[N+](C)(C)C)CCC[Si](C)(CCC[Si](C)(C)OCCN(C)CC[N+](C)(C)C)CCC[Si](C)(C)OCCN(C)CC[N+](C)(C)C)CCC[Si](C)(C)OCCN(C)CC[N+](C)(C)C)CC[N+](C)(C)C.[I-].[I-].[I-].[I-].[I-].[I-].[I-].[I-] [NN, 2G-[Si(O(CH2)2N(Me)(CH2)2NMe3^+I^−)]8] | good capacity for preventing the infection of lymphocytes by the HIV virus | complex is formed | complex is formed | complex is formed | greater cytotoxicity as their concentration increases | 95
C[N+](C)(C)CCO[Si](C)(CCC[Si](C)(CCC[Si](CCC[Si](C)(CCC[Si](C)(OCC[N+](C)(C)C)OCC[N+](C)(C)C)CCC[Si](C)(OCC[N+](C)(C)C)OCC[N+](C)(C)C)(CCC[Si](C)(CCC[Si](C)(OCC[N+](C)(C)C)OCC[N+](C)(C)C)CCC[Si](C)(OCC[N+](C)(C)C)OCC[N+](C)(C)C)CCC[Si](C)(CCC[Si](C)(OCC[N+](C)(C)C)OCC[N+](C)(C)C)CCC[Si](C)(OCC[N+](C)(C)C)OCC[N+](C)(C)C)CCC[Si](C)(OCC[N+](C)(C)C)OCC[N+](C)(C)C)OCC[N+](C)(C)C.[I-].[I-].[I-].[I-].[I-].[I-].[I-].[I-].[I-].[I-].[I-].[I-].[I-].[I-].[I-].[I-] [IM16, 2G-[Si(OCH2CH2NMe3^+I^−)2]8] |  | complex is not formed | complex is formed | complex is formed |  | 
